Laboratory results published in patent publication US20250019387A1 (Frontier Medicines Corporation, priority 0001, published 2025).

molecular target: KRAS G12C and cRAF (Ras-binding domain) interaction (Homo sapiens (Human), UniProt P01116, C118S/C51S/C80L/G12C); experiment: Inhibition of KRAS G12C and cRAF binding (AlphaScreen); conditions: GMPPNP-loaded KRAS G12C, 19-20 hours incubation with compound; read-out: IC50 (Inhibition of KRAS G12C and cRAF Binding)
How it was run: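 IC50 values come from 4-parameter nonlinear regression of AlphaScreen signal (680 nm excitation, 570 nm emission). Compound plates sat 19-20 h at room temperature before RBD and donor/acceptor beads were added in Hepes pH 7.4 buffer with 150 mM NaCl, 5 mM MgCl2, 2% DMSO for 60-90 min; biotin-AviTag-GST replaced RBD to flag assay-technology interferers.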

Sequence of KRAS G12C and cRAF (Ras-binding domain) interaction (P01116 other isoform, or with tags, fused parts or gaps G12C/C51S/C80L/C118S): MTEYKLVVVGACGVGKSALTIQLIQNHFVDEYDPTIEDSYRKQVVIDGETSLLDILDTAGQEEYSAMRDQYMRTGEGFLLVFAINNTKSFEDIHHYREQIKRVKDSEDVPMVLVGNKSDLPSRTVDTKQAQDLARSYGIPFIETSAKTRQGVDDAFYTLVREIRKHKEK

Row | SMILES | IC50 [nM]
1 | C=CC(=O)N1C[C@H](N(C)c2nc(OC[C@@]34CCCN3C[C@H](F)C4)nc3c(F)c(-c4cccc5cccc(Cl)c45)ncc23)C[C@@H]1CC#N [Example 87, 2-((2R,4R)-1-acryloyl-4-((7-(8-chloronaphthalen-1-yl)-8-fluoro-2-(((2R,7aS)-2-fluorotetrahydro-1H-pyrrolizin-7a(5H)-yl)methoxy)pyrido[4,3-d]pyrimidin-4-yl)(methyl)amino)pyrrolidin-2-yl)acetonitrile] | 100 to 500
2 | CN(c1nc(OC[C@@]23CCCN2C[C@H](F)C3)nc2c(F)c(-c3cccc4cccc(Cl)c34)ncc12)[C@@H]1CCN(C(=O)/C=C/CN2CCOCC2)C1 [Example 90, (E)-1-((R)-3-((7-(8-chloronaphthalen-1-yl)-8-fluoro-2-(((2R,7aS)-2-fluorohexahydro-1H-pyrrolizin-7a-yl)methoxy)pyrido[4,3-d]pyrimidin-4-yl)(methyl)amino)pyrrolidin-1-yl)-4-morpholinobut-2-en-1-one] | 10 to 100
3 | CN(CC1CN(C(=O)C#CCN2CCOCC2)C1)c1nc(OC[C@@]23CCCN2C[C@H](F)C3)nc2c(F)c(-c3cccc4cccc(Cl)c34)ncc12 [Example 91, 1-(3-(((7-(8-chloronaphthalen-1-yl)-8-fluoro-2-(((2R,7aS)-2-fluorotetrahydro-1H-pyrrolizin-7a(5H)-yl)methoxy)pyrido[4,3-d]pyrimidin-4-yl)(methyl)amino)methyl)azetidin-1-yl)-4-morpholinobut-2-yn-1-one] | 100 to 500
4 | CN(c1nc(OC[C@@]23CCCN2C[C@H](F)C3)nc2c(F)c(-c3cccc4cccc(Cl)c34)ncc12)[C@@H]1CCN(C(=O)C#CCN2CCOCC2)C1 [Example 92, 1-((R)-3-((7-(8-chloronaphthalen-1-yl)-8-fluoro-2-(((2R,7aS)-2-fluorohexahydro-1H-pyrrolizin-7a-yl)methoxy)pyrido[4,3-d]pyrimidin-4-yl)(methyl)amino)pyrrolidin-1-yl)-4-morpholinobut-2-yn-1-one] | > 500
5 | CN(c1nc(OC[C@@]23CCCN2C[C@H](F)C3)nc2c(F)c(-c3cccc4ccc(F)c(Cl)c34)ncc12)[C@@H]1CCN(C(=O)/C=C/CN2CCOCC2)C1 [Example 96, (E)-1-((R)-3-((7-(8-chloro-7-fluoronaphthalen-1-yl)-8-fluoro-2-(((2R,7aS)-2-fluorotetrahydro-1H-pyrrolizin-7a(5H)-yl)methoxy)pyrido[4,3-d]pyrimidin-4-yl)(methyl)amino)pyrrolidin-1-yl)-4-morpholinobut-2-en-1-one] | 100 to 500
6 | C=CC(=O)N1CC(CN(C)c2nc(OC[C@@]34CCCN3C[C@H](F)C4)nc3c(F)c(-c4cc(O)cc5cccc(Cl)c45)ncc23)C1 [Example 97, 1-(3-(((7-(8-chloro-3-hydroxynaphthalen-1-yl)-8-fluoro-2-(((2R,7aS)-2-fluorotetrahydro-1H-pyrrolizin-7a(5H)-yl)methoxy)pyrido[4,3-d]pyrimidin-4-yl)(methyl)amino)methyl)azetidin-1-yl)prop-2-en-1-one] | < 10
7 | CC(C)c1noc(/C=C/C(=O)N2CC[C@@H](N(C)c3nc(OC[C@@]45CCCN4C[C@H](F)C5)nc4c3CCN(c3cccc5ccc(F)c(Cl)c35)C4)C2)n1 [Example 99, (E)-1-((R)-3-((7-(8-chloro-7-fluoronaphthalen-1-yl)-2-(((2R,7aS)-2-fluorohexahydro-1H-pyrrolizin-7a-yl)methoxy)-5,6,7,8-tetrahydropyrido[3,4-d]pyrimidin-4-yl)(methyl)amino)pyrrolidin-1-yl)-3-(3-isopropyl-1,2,4-oxadiazol-5-yl)prop-2-en-1-one] | 10 to 100
8 | CN(c1nc(OCC23CCCN2CCC3)nc2c(F)c(-c3cccc4cccc(Cl)c34)ncc12)[C@@H]1CCN(C(=O)/C=C/c2nc(C3(C)CC3)no2)C1 [Example 101, (R,E)-1-(3-((7-(8-chloronaphthalen-1-yl)-8-fluoro-2-((hexahydro-1H-pyrrolizin-7a-yl)methoxy)pyrido[4,3-d]pyrimidin-4-yl)(methyl)amino)pyrrolidin-1-yl)-3-(3-(1-methylcyclopropyl)-1,2,4-oxadiazol-5-yl)prop-2-en-1-one] | < 10
9 | CN(c1nc(OC[C@@]23CCCN2C[C@H](F)C3)nc2c(F)c(-c3cccc4ccc(F)c(Cl)c34)ncc12)[C@@H]1CCN(C(=O)/C=C/C2CCCN2)C1 (stereo partly drawn) [Example 102, (E)-1-((R)-3-((7-(8-chloro-7-fluoronaphthalen-1-yl)-8-fluoro-2-(((2R,7aS)-2-fluorotetrahydro-1H-pyrrolizin-7a(5H)-yl)methoxy)pyrido[4,3-d]pyrimidin-4-yl)(methyl)amino)pyrrolidin-1-yl)-3-(pyrrolidin-2-yl)prop-2-en-1-one] | 10 to 100
10 | CN(c1nc(OC[C@@]23CCCN2C[C@H](F)C3)nc2c(F)c(-c3cccc4ccc(F)c(Cl)c34)ncc12)[C@@H]1CCN(C(=O)/C=C/C2CCN2)C1 (stereo partly drawn) [Example 103, (E)-3-(azetidin-2-yl)-1-((R)-3-((7-(8-chloro-7-fluoronaphthalen-1-yl)-8-fluoro-2-(((2R,7aS)-2-fluorotetrahydro-1H-pyrrolizin-7a(5H)-yl)methoxy)pyrido[4,3-d]pyrimidin-4-yl)(methyl)amino)pyrrolidin-1-yl)prop-2-en-1-one] | 10 to 100

The next lines start with the values.

Row | IC50 [nM] | SMILES
11 | < 10 | CN(c1nc(OC[C@@]23CCCN2C[C@H](F)C3)nc2c(F)c(-c3cccc4ccc(F)c(Cl)c34)ncc12)[C@@H]1CCN(C(=O)/C=C/c2nc(C(C)(C)O)no2)C1 [Example 88, (E)-1-((R)-3-((7-(8-chloro-7-fluoronaphthalen-1-yl)-8-fluoro-2-(((2R,7aS)-2-fluorotetrahydro-1H-pyrrolizin-7a(5H)-yl)methoxy)pyrido[4,3-d]pyrimidin-4-yl)(methyl)amino)pyrrolidin-1-yl)-3-(3-(2-hydroxypropan-2-yl)-1,2,4-oxadiazol-5-yl)prop-2-en-1-one]
12 | 10 to 100 | CN(CC1CN(C(=O)/C=C/CN2CCOCC2)C1)c1nc(OC[C@@]23CCCN2C[C@H](F)C3)nc2c(F)c(-c3cccc4cccc(Cl)c34)ncc12 [Example 89, (E)-1-(3-(((7-(8-chloronaphthalen-1-yl)-8-fluoro-2-(((2R,7aS)-2-fluorotetrahydro-1H-pyrrolizin-7a(5H)-yl)methoxy)pyrido[4,3-d]pyrimidin-4-yl)(methyl)amino)methyl)azetidin-1-yl)-4-morpholinobut-2-en-1-one]
13 | < 10 | CN(c1nc(OC[C@@]23CCCN2C[C@H](F)C3)nc2c(F)c(-c3cccc4cccc(Cl)c34)ncc12)[C@@H]1CCN(C(=O)/C=C/c2nc(C3(C)COC3)no2)C1 [Example 95, (E)-1-((R)-3-((7-(8-chloronaphthalen-1-yl)-8-fluoro-2-(((2R,7aS)-2-fluorotetrahydro-1H-pyrrolizin-7a(5H)-yl)methoxy)pyrido[4,3-d]pyrimidin-4-yl)(methyl)amino)pyrrolidin-1-yl)-3-(3-(3-methyloxetan-3-yl)-1,2,4-oxadiazol-5-yl)prop-2-en-1-one]
14 | < 10 | CN(c1nc(OCC23CCCN2CCC3)nc2c(F)c(-c3cccc4cccc(Cl)c34)ncc12)[C@@H]1CCN(C(=O)/C=C/c2nc(C(F)(F)F)no2)C1 [Example 100, (R,E)-1-(3-((7-(8-chloronaphthalen-1-yl)-8-fluoro-2-((tetrahydro-1H-pyrrolizin-7a(5H)-yl)methoxy)pyrido[4,3-d]pyrimidin-4-yl)(methyl)amino)pyrrolidin-1-yl)-3-(3-(trifluoromethyl)-1,2,4-oxadiazol-5-yl)prop-2-en-1-one]
15 | 100 to 500 | CN(CC1CN(C(=O)/C=C/c2nc(C3CC3)no2)C1)c1nc(OC[C@@]23CCCN2C[C@H](F)C3)nc2c(F)c(-c3cccc4cccc(Cl)c34)ncc12 [Example 104, (E)-1-(3-(((7-(8-chloronaphthalen-1-yl)-8-fluoro-2-(((2R,7aS)-2-fluorotetrahydro-1H-pyrrolizin-7a(5H)-yl)methoxy)pyrido[4,3-d]pyrimidin-4-yl)(methyl)amino)methyl)azetidin-1-yl)-3-(3-cyclopropyl-1,2,4-oxadiazol-5-yl)prop-2-en-1-one]
16 | < 10 | CN(CC1CN(C(=O)/C=C/c2nc(C(C)(C)O)no2)C1)c1nc(OC[C@@]23CCCN2C[C@H](F)C3)nc2c(F)c(-c3cccc4cccc(Cl)c34)ncc12 [Example 105, (E)-1-(3-(((7-(8-chloronaphthalen-1-yl)-8-fluoro-2-(((2R,7aS)-2-fluorotetrahydro-1H-pyrrolizin-7a(5H)-yl)methoxy)pyrido[4,3-d]pyrimidin-4-yl)(methyl)amino)methyl)azetidin-1-yl)-3-(3-(2-hydroxypropan-2-yl)-1,2,4-oxadiazol-5-yl)prop-2-en-1-one]
17 | 10 to 100 | CC(C)c1noc(/C=C/C(=O)N2CC(CN(C)c3nc(OC[C@@]45CCCN4C[C@H](F)C5)nc4c(F)c(-c5cccc6cccc(Cl)c56)ncc34)C2)n1 [Example 106, (E)-1-(3-(((7-(8-chloronaphthalen-1-yl)-8-fluoro-2-(((2R,7aS)-2-fluorotetrahydro-1H-pyrrolizin-7a(5H)-yl)methoxy)pyrido[4,3-d]pyrimidin-4-yl)(methyl)amino)methyl)azetidin-1-yl)-3-(3-isopropyl-1,2,4-oxadiazol-5-yl)prop-2-en-1-one]
18 | < 10 | CN(c1nc(OC[C@@]23CCCN2C[C@H](F)C3)nc2c(F)c(-c3cccc4cccc(Cl)c34)ncc12)[C@@H]1CCN(C(=O)/C=C/c2nc(C(C)(C)O)no2)C1 [Example 107, (E)-1-((R)-3-((7-(8-chloronaphthalen-1-yl)-8-fluoro-2-(((2R,7aS)-2-fluorotetrahydro-1H-pyrrolizin-7a(5H)-yl)methoxy)pyrido[4,3-d]pyrimidin-4-yl)(methyl)amino)pyrrolidin-1-yl)-3-(3-(2-hydroxypropan-2-yl)-1,2,4-oxadiazol-5-yl)prop-2-en-1-one]
